We go through one compound from ChEMBL document CHEMBL3994583, “Discovery of 4-[(5-arylidene-4-oxothiazolidin-3-yl)methyl]benzoic acid derivatives active as novel potent allosteric inhibitors of protein tyrosine phosphatase 1B: In silico studies and in vitro evaluation as insulinomimetic and anti-inflammatory agents” (Eur J Med Chem, 2017).

Active and inactive are the calls of the source. No cut-off for these calls is given here.

Data set [1] deals with NCTC-2544. The data set is described as follows: Anti-inflammatory activity in IFN-gamma and histamine-stimulated human NCTC-2544 cells assessed as reduction in COX-2 protein expression by Western blot method. The format is functional, cell-based.
Data set [2] relates to C2C12. Description: Insulinomimetic effect in mouse C2C12 cells assessed as induction of [3H]2-deoxyglucose uptake at 50 uM preincubated for 30 mins followed by [3H]2-deoxyglucose addition measured after 15 mins by liquid scintillation counting method. Format: functional, cell-based.
Data set [3] addresses T1, Tyrosine-protein phosphatase non-receptor type 1 (Homo sapiens) (UniProt P18031).
T1 sequence (whole entry): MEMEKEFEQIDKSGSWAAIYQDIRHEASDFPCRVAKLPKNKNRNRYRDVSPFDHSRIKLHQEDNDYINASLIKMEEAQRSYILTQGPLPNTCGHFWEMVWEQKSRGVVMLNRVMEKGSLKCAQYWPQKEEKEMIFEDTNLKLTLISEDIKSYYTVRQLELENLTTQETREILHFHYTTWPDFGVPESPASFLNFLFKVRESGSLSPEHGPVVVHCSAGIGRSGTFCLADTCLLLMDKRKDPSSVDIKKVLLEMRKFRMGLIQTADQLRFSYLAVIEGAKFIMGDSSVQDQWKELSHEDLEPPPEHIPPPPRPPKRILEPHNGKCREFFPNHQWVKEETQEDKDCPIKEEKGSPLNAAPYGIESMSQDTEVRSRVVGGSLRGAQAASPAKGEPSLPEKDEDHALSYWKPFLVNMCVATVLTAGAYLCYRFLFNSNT
The data set is described as follows: Irreversible inhibition of full length recombinant human PTP1B assessed as recovery of enzyme activity up to 50 uM using pNPP as substrate preincubated for 1 hr followed by substrate addition by spectrophotometric method. Also on record: scale not given: the % may be the effect or the level left.

The subject of data set [4] is C2C12. Description: Cytotoxicity against mouse C2C12 cells assessed as reduction in cell viability after 24 hrs by MTT assay. The format is cell-based. The settings on record: c2c12, 24 h.
In data set [5] the target is T2, Tyrosine-protein phosphatase non-receptor type 1 (Homo sapiens, UniProt P18031).
T2 sequence (P18031 whole entry): T1 sequence (whole entry)
Description: Inhibition of full length recombinant human PTP1B using pNPP as substrate by spectrophotometric method.

The target of data set [6] is T2, Tyrosine-protein phosphatase non-receptor type 1. The data set is described as follows: Competitive inhibition of full length recombinant human PTP1B assessed as enzyme-inhibitor complex using pNPP as substrate by double reciprocal plot method.
The test system of data set [7] is NCTC-2544. Description: Anti-inflammatory activity in IFN-gamma and histamine-stimulated human NCTC-2544 cells assessed as reduction in iNOS protein expression by Western blot method. The format is functional, cell-based.
For data set [8], the system named is NCTC-2544. The data set is described as follows: Anti-inflammatory activity in IFN-gamma and histamine-stimulated human NCTC-2544 cells assessed as reduction in ICAM-1 protein expression by Western blot method. The format is functional, cell-based.
Data set [9] has as its target T3, Tyrosine-protein phosphatase non-receptor type 1 (Mus musculus) (UniProt P35821).
T3 sequence (whole entry): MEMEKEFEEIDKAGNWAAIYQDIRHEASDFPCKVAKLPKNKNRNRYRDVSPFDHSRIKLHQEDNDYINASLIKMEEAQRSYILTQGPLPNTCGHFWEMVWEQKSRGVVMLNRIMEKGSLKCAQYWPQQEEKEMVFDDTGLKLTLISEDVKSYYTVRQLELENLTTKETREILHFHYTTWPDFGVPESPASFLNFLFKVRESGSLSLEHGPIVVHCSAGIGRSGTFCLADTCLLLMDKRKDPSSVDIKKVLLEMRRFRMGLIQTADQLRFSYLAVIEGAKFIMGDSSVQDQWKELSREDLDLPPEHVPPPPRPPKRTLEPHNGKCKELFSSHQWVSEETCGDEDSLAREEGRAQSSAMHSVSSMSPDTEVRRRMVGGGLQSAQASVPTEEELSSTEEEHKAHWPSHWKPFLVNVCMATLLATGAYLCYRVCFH
Description: Inhibition of PTP1B in mouse C2C12 cells assessed as increase in phosphorylation of IRbeta at Tyr1162/1163 residues at 50 uM after 30 mins by Western blot method. Format: cell-based.

The subject of data set [10] is NCTC-2544. Description: Cytotoxicity against human IFN-gamma and histamine-stimulated NCTC-2544 cells assessed as reduction in cell viability at 10 uM by MTT assay. The conditions noted are these: nctc-2544, 10 µM. The format is cell-based.
Data set [11] has as its target T1, Tyrosine-protein phosphatase non-receptor type 1 (Homo sapiens). Description: Inhibition of PTP1B in human HepG2 cells assessed as increase in phosphorylation of Akt at Ser473 residue at 50 uM after 30 mins by Western blot method. The format is cell-based.
Data set [12] deals with T3, Tyrosine-protein phosphatase non-receptor type 1 (Mus musculus). Description: Inhibition of PTP1B in mouse C2C12 cells assessed as increase in phosphorylation of Akt at Ser473 residue at 50 uM after 30 mins by Western blot method. The format is cell-based.
A further data set deals with HepG2. The data set is described as follows: Cytotoxicity against human HepG2 cells assessed as reduction in cell viability at 25 uM after 24 hrs by MTT assay. Format: cell-based. The conditions noted are these: hepg2, 24 h.
Data set [13] relates to NCTC-2544. Description: Cytotoxicity against human NCTC-2544 cells assessed as reduction in cell viability at 10 uM by MTT assay. The settings on record: nctc-2544, 10 µM. Format: cell-based.
The target of data set [14] is T1, Tyrosine-protein phosphatase non-receptor type 1 (Homo sapiens). The data set is described as follows: Inhibition of PTP1B in human HepG2 cells assessed as increase in phosphorylation of IRbeta at Tyr1162/1163 residues at 50 uM after 30 mins by Western blot method. Format: cell-based.

As to `O=C(O)c1ccc(CN2C(=O)/C(=C/c3cccc(Oc4ccccc4)c3)S/C2=N\c2ccc(F)cc2)cc1`, the outcome in the data set with NCTC-2544 [1], with C2C12 [2] and in the data set with NCTC-2544 [7] was Active. Further, the Activity in data set [3] was 10 to 50%; with C2C12 [4], “Non-Toxic”; in the data set with NCTC-2544 [10] it was “Non-Toxic”; in the data set with HepG2, “Non-Toxic”; in the data set on NCTC-2544 [13], “Non-Toxic”. For the same compound, the IC50 in data set [5] turned out to be 10 µM. Besides, the Ki in data set [6] came to 4.4 µM. In the data set on NCTC-2544 [8], the result was inactive. Also, the inhibition result in data set [9], in [11], in [12] and in [14] was “Active” each time.
